± gives the standard deviation of the averaged measurements.
How the values were obtained:
[1] = compound: Cc1ccc(NC(=O)c2ccc(CN3CCN(C)CC3)cc2)cc1Nc1nccc(-c2cccnc2)n1 [IMATINIB]; test: surviving fraction relative to DMSO-only wells; higher = less growth inhibition; settings: exposure time: 5 days
How it was run: (§1)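 Log-phase tumour cell lines were seeded at 250–500 cells per well in 384-well plates. After 24 hours they were exposed continuously for five days to inhibitors at 0.5, 1, 5, 10, 50, 100, 500 and 1000 nM. Viability was read by CellTiter-Glo luminescence after 10 minutes at room temperature, and surviving fraction is luminescence normalised to the median of DMSO-only wells. Each line was screened three times and kept only if replicate Pearson r >0.7 and median Z' >0.3.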

[2] = compound: Cn1ncnc1[C@H]1c2n[nH]c(=O)c3cc(F)cc(c23)N[C@@H]1c1ccc(F)cc1 [BMN-673]; test: as above; settings: exposure time: 5 days
How it was run: as §1

Test System | surviving fraction ([1]; 0.5 nM) | surviving fraction ([1]; 1 nM) | surviving fraction ([1]; 10 nM) | surviving fraction ([1]; 50 nM) | surviving fraction ([1]; 500 nM) | surviving fraction ([1]; 1000 nM) | surviving fraction ([2]; 0.5 nM) | surviving fraction ([2]; 1 nM) | surviving fraction ([2]; 5 nM) | surviving fraction ([2]; 10 nM) | surviving fraction ([2]; 50 nM) | surviving fraction ([2]; 100 nM) | surviving fraction ([2]; 500 nM) | surviving fraction ([2]; 1000 nM) | surviving fraction ([1]; 5 nM) | surviving fraction ([1]; 100 nM)
DU4475 BREAST | 1.04 ± 0.18 | 1.1 ± 0.028 | 1.11 ± 0.13 | 1.09 ± 0.15 | 1.21 ± 0.049 | 1.09 ± 0.1 | 1.1 ± 0.049 | 0.916 ± 0.11 | 0.57 ± 0.055 | 0.456 ± 0.071 | 0.325 ± 0.068 | 0.278 ± 0.054 | 0.284 ± 0.052 | 0.293 ± 0.027 | – | –
MHM BONE | 1.07 ± 0.032 | 1.03 ± 0.059 | 1.09 ± 0.045 | – | 1.08 ± 0.029 | – | 1.03 ± 0.047 | 1 ± 0.035 | 1.01 ± 0.048 | 1.01 ± 0.051 | 0.997 ± 0.041 | 0.981 ± 0.0079 | 0.868 ± 0.017 | 0.782 ± 0.012 | 1.09 ± 0.043 | –
HT1080 SOFT TISSUE | 1.045 ± 0.01 | 1.074 ± 0.0023 | 1.07 ± 0.021 | 1.04 ± 0.036 | – | – | 1 ± 0.037 | 0.967 ± 0.042 | 0.73 ± 0.024 | 0.524 ± 0.02 | 0.375 ± 0.018 | 0.312 ± 0.0085 | 0.204 ± 0.0027 | 0.187 ± 0.014 | 1.1 ± 0.048 | 1.03 ± 0.033
MDAMB453 BREAST | – | 1.1 ± 0.086 | 1.12 ± 0.1 | 1.18 ± 0.034 | 1.082 ± 0.0067 | 1.04 ± 0.011 | 1.1 ± 0.11 | 1.03 ± 0.054 | 1.12 ± 0.13 | 0.881 ± 0.057 | 0.724 ± 0.056 | 0.57 ± 0.029 | 0.454 ± 0.019 | 0.495 ± 0.044 | 1.13 ± 0.051 | 1.06 ± 0.034
NOS1 BONE | 1.18 ± 0.11 | 1.12 ± 0.041 | 1.13 ± 0.11 | – | 0.883 ± 0.14 | 0.898 ± 0.039 | 1.1 ± 0.058 | 0.953 ± 0.093 | 0.683 ± 0.026 | 0.66 ± 0.066 | 0.633 ± 0.085 | 0.564 ± 0.051 | 0.551 ± 0.042 | 0.552 ± 0.026 | 1.2 ± 0.085 | 1.06 ± 0.15
HOS BONE | 1.03 ± 0.02 | – | 1.047 ± 0.0078 | – | 1.03 ± 0.037 | – | 1.04 ± 0.037 | 1 ± 0.018 | 0.976 ± 0.018 | 0.974 ± 0.036 | 0.993 ± 0.04 | 0.96 ± 0.036 | 0.596 ± 0.022 | 0.282 ± 0.026 | 1.04 ± 0.028 | 1.06 ± 0.023
CAL120 BREAST | 0.995 ± 0.073 | 0.978 ± 0.041 | – | 1.03 ± 0.021 | 1.04 ± 0.044 | 0.992 ± 0.07 | 0.968 ± 0.033 | 0.915 ± 0.067 | 0.798 ± 0.05 | 0.676 ± 0.035 | 0.591 ± 0.014 | 0.506 ± 0.062 | 0.43 ± 0.021 | 0.425 ± 0.035 | 0.994 ± 0.091 | 0.97 ± 0.045
MDAMB134 BREAST | 0.896 ± 0.08 | – | 0.86 ± 0.057 | 1.02 ± 0.093 | 0.994 ± 0.17 | 0.814 ± 0.15 | 0.955 ± 0.085 | 0.908 ± 0.14 | 0.971 ± 0.057 | 0.929 ± 0.014 | 1.01 ± 0.067 | 0.991 ± 0.025 | 0.857 ± 0.23 | 0.775 ± 0.08 | – | 1.11 ± 0.024
LNCAP PROSTATE | – | 1.1 ± 0.1 | – | 0.967 ± 0.14 | – | – | 0.85 ± 0.052 | 0.849 ± 0.05 | 0.604 ± 0.059 | 0.407 ± 0.037 | 0.297 ± 0.015 | 0.254 ± 0.0095 | 0.181 ± 0.014 | 0.165 ± 0.022 | 0.968 ± 0.068 | 0.986 ± 0.049
LM7 BONE | – | – | 1.11 ± 0.082 | 1.19 ± 0.074 | 1.04 ± 0.016 | 0.959 ± 0.11 | 0.975 ± 0.042 | 0.987 ± 0.068 | 0.764 ± 0.051 | 0.573 ± 0.028 | 0.395 ± 0.027 | 0.312 ± 0.028 | 0.227 ± 0.015 | 0.197 ± 0.024 | – | 1.17 ± 0.063
SG28 HEADNECK | 1.25 ± 0.093 | 1.11 ± 0.12 | – | – | 1.18 ± 0.11 | 1.14 ± 0.096 | 1.09 ± 0.14 | 1.064 ± 0.0085 | 1.12 ± 0.13 | 1.06 ± 0.012 | 1.01 ± 0.12 | 0.996 ± 0.065 | 1.01 ± 0.15 | 1.01 ± 0.074 | – | –
CME SYNOVIAL | 1.27 ± 0.17 | 1.4 ± 0.045 | 1.24 ± 0.16 | 1.22 ± 0.1 | 1.15 ± 0.047 | 1.14 ± 0.055 | 0.831 ± 0.068 | 0.528 ± 0.039 | 0.234 ± 0.018 | 0.211 ± 0.035 | 0.243 ± 0.024 | 0.211 ± 0.012 | 0.201 ± 0.0059 | 0.285 ± 0.0076 | 1.28 ± 0.03 | 1.37 ± 0.042
MDAMB361 BREAST | 0.927 ± 0.066 | 0.879 ± 0.079 | 0.878 ± 0.046 | 0.869 ± 0.082 | – | 0.827 ± 0.087 | 0.804 ± 0.064 | 0.806 ± 0.018 | 0.829 ± 0.013 | 0.82 ± 0.041 | 0.856 ± 0.026 | 0.798 ± 0.07 | 0.782 ± 0.038 | 0.764 ± 0.062 | 0.826 ± 0.018 | 0.879 ± 0.081
HCC202 BREAST | 1.44 ± 0.69 | 0.908 ± 0.013 | – | 1.11 ± 0.34 | 1.3 ± 0.15 | 1.39 ± 0.35 | 0.932 ± 0.39 | 1.15 ± 0.44 | 0.688 ± 0.18 | 0.769 ± 0.34 | 0.661 ± 0.13 | 0.566 ± 0.14 | 0.81 ± 0.05 | 0.671 ± 0.11 | 1.28 ± 0.18 | 1.32 ± 0.45
MCF7 BREAST | 0.988 ± 0.064 | – | 0.955 ± 0.062 | 1.04 ± 0.018 | 1.05 ± 0.043 | 0.986 ± 0.014 | 0.952 ± 0.053 | 0.95 ± 0.069 | 0.838 ± 0.029 | 0.802 ± 0.046 | 0.756 ± 0.03 | 0.732 ± 0.026 | 0.679 ± 0.024 | 0.62 ± 0.011 | 0.97 ± 0.03 | 1.01 ± 0.033
CAL72 BONE | 1.11 ± 0.14 | 1.09 ± 0.11 | 1.07 ± 0.1 | 1.15 ± 0.2 | 1.12 ± 0.14 | 1.14 ± 0.087 | 1.08 ± 0.13 | 1.07 ± 0.027 | 1.07 ± 0.018 | 1.09 ± 0.09 | 1.07 ± 0.082 | 0.973 ± 0.22 | 0.776 ± 0.19 | 0.509 ± 0.21 | 1.12 ± 0.065 | –
HU09 BONE | 1.05 ± 0.19 | 1.01 ± 0.034 | – | 0.878 ± 0.084 | 0.554 ± 0.027 | 0.483 ± 0.026 | 0.97 ± 0.066 | 0.978 ± 0.056 | 0.898 ± 0.067 | 0.812 ± 0.11 | 0.486 ± 0.046 | 0.437 ± 0.038 | 0.104 ± 0.018 | 0.058 ± 0.008 | 1.16 ± 0.038 | 0.89 ± 0.0044
JIMT1 BREAST | 1.04 ± 0.047 | 1 ± 0.051 | 0.99 ± 0.028 | – | 1.03 ± 0.056 | 1.03 ± 0.045 | 0.928 ± 0.041 | 0.913 ± 0.025 | 0.848 ± 0.011 | 0.822 ± 0.011 | 0.71 ± 0.035 | 0.617 ± 0.063 | 0.474 ± 0.027 | 0.395 ± 0.033 | 1.03 ± 0.029 | 1.08 ± 0.039
SG31 HEADNECK | 1.16 ± 0.19 | 1.33 ± 0.14 | 1.16 ± 0.33 | 1.07 ± 0.1 | 1.33 ± 0.21 | 1.18 ± 0.16 | 1.18 ± 0.14 | 1.12 ± 0.028 | 1.08 ± 0.24 | 0.911 ± 0.15 | 0.969 ± 0.046 | 0.787 ± 0.09 | 0.916 ± 0.064 | 0.751 ± 0.046 | 1.36 ± 0.36 | 0.994 ± 0.022
JURKAT HAEMATOPOIETIC AND LYMPHOID TISSUE | 1.05 ± 0.031 | 1.07 ± 0.031 | – | 0.994 ± 0.032 | 1.03 ± 0.039 | 1.04 ± 0.041 | 1.04 ± 0.027 | 1.04 ± 0.015 | 0.863 ± 0.035 | 0.838 ± 0.014 | 0.601 ± 0.049 | 0.503 ± 0.033 | 0.123 ± 0.007 | 0.0493 ± 0.0047 | 0.986 ± 0.034 | 1.02 ± 0.038
CASKI CERVIX | 0.935 ± 0.028 | 0.9783 ± 0.0081 | 0.962 ± 0.029 | 1.06 ± 0.042 | 0.919 ± 0.037 | 1 ± 0.04 | 0.942 ± 0.03 | 0.888 ± 0.063 | 0.9 ± 0.036 | 0.88 ± 0.06 | 0.858 ± 0.054 | 0.821 ± 0.068 | 0.594 ± 0.0084 | 0.502 ± 0.02 | 1.01 ± 0.048 | 1.06 ± 0.06
SUM149.B1*.S BREAST | 1.12 ± 0.041 | 1.11 ± 0.036 | 1.19 ± 0.035 | 1.19 ± 0.039 | 1.19 ± 0.051 | 1.18 ± 0.061 | 1.11 ± 0.036 | 1.03 ± 0.0064 | 1.05 ± 0.058 | 0.931 ± 0.059 | 0.808 ± 0.055 | 0.739 ± 0.063 | 0.451 ± 0.075 | 0.33 ± 0.052 | 1.15 ± 0.04 | 1.15 ± 0.038
143B BONE | 1.07 ± 0.022 | 1.1 ± 0.03 | 1.1 ± 0.013 | 1.14 ± 0.043 | 1.15 ± 0.1 | 1.14 ± 0.11 | 1.08 ± 0.047 | 1.11 ± 0.086 | 1.1 ± 0.054 | 1.09 ± 0.073 | 1.11 ± 0.16 | 1.05 ± 0.064 | 0.733 ± 0.06 | 0.528 ± 0.052 | – | –
